Assay results: patent US20100086929A1, “DETECTION OF ANALYTES” (DO-COOP TECHNOLOGIES LTD., priority 2007, published 2010)
Counter-ions that a name gives are not always drawn. Where no end group is shown, it is not given here.

Columns and labels:
[1] = Solubilization of peptides in Neowater (Example 9); assay type: physicochemical; conditions: Neowater at 0.5 mM
Experimental: In addition, the effect of the peptides on Skov-3 cells was measured in order to ascertain whether the carrier composition comprising nanostructures influenced the cytotoxic activity of the peptides.
Solubilization: All seven peptides (Peptide X, X-5FU, NLS-E, Palm-PFPSYK (CMFU), […]-NH2, NLS-p2-LHRH, and F-LH-RH-palm kGFPSK) were dissolved in Neowater™ at 0.5 mM. Spectrophotometric measurements were taken.

[2] = Solubilization of taxol in DMSO or Neowater with 17% EtOH (Example 13); assay type: physicochemical
Experimental: The following experiments were performed in order to ascertain whether the carrier composition comprising nanostructures was capable of dissolving material taxol (Paclitaxel) at a final concentration of 0.5 mM.
Solubilization: 0.5 mM Taxol solution was prepared (0.0017 gr in 4 ml) in either DMSO or Neowater™ with 17% EtOH. Absorbance was detected with a spectrophotometer.

[3] = Taxol in Neowater by slow solvent exchange, HPLC after storage (Example 16); assay type: physicochemical; conditions: taxol dispersed in Neowater, 6 month storage at −20° C.
Experimental: Solubilization: 0.5 mM Taxol solution was prepared (0.0017 gr in 4 ml). […] At the end of the procedure, less than 40% ethanol remained in the solution, leading to 0.08% of ethanol in the final administered concentration. The solution was sterilized using a 0.2 μm filter. Taxol was separately prepared in DMSO (0.5 mM). Both solutions were kept at −20° C. Absorbance was detected with a spectrophotometer.

[4] = Solubilizing CD-Dau, Daunorubicine and t-boc in Neowater (Example 7); assay type: physicochemical
Experimental: Required concentration: 3 mg/ml Neowater.
Properties: The material dissolves in EtOH.
5 different glass vials were prepared: • 1. 5 mg CD-Dau+1.2 ml Neowater™. • 2. 1.8 mg CD-Dau+600 μl acetone. • 3. 1.8 mg CD-Dau+150 μl acetone+450 μl Neowater™ (25% acetone). • 4. 1.8 mg CD-Dau+600 μl 10% *PEG (Polyethylene Glycol). • 5. 1.8 mg CD-Dau+600 μl acetone+600 μl Neowater™. • The samples were vortexed and spectrophotometer measurements were performed on vials #1, 4 and 5 • The vials were left opened in order to evaporate the acetone (vials #2, 3, and 5).
As soon as the acetone was evaporated from solutions #2, 4 and 5, the material sedimented slightly and an additional amount of acetone was added to the vials. This protocol enables the dissolving of the material in the presence of acetone and Neowater™ while at the same time enabling the subsequent evaporation of acetone from the solution (this procedure was performed twice). Following the second cycle the liquid phase was removed from the vile and additional amount of acetone was added to the sediment material. Once the sediment material dissolved it was merged with the liquid phase removed previously. The merged solution was evaporated again. […] Later 1.2 ml of 10% PEG+Neowater™ were added also and after some time the acetone was evaporated from the solution. Finalizing these procedures, the vials were merged to one vial (total volume of 3 ml). On top of this final volume 3 ml of acetone were added in order to dissolve the material and to receive a lucid liquefied solution, which was then evaporated again at 50° C. The solution didn't reach equilibrium due to the fact that once reaching such status the solution would have been separated. By avoiding equilibrium, the material hydration status was maintained and kept as liquid. After the solvent evaporated the material was transferred to a clean vial and was closed under vacuum conditions.
2 mg Daunorubicine+1 ml Neowater™ was prepared in one vial and 2 mg of Daunorubicine+1 ml RO was prepared in a second vial.
1.14 ml of EtOH was added to one glass vial containing 18.5 mg of t-boc (an oily material). This was then divided into two vials and 1.74 ml Neowater™ or RO water was added to the vials such that the solution comprised 25% EtOH. Following spectrophotometer measurements, the solvent was evaporated from the solution and Neowater™ was added to both vials to a final volume of 2.31 ml in each vial. The solutions in the two vials were merged to one clean vial and packaged for shipment under vacuum conditions.

[5] = cited from earlier work
[6] = Solubilization of retinol in Neowater, absorbance and filtration (Example 10); assay type: physicochemical
Experimental: Retinol (vitamin A) was purchased from Sigma (Fluka, 99% HPLC). Retinol was solubilized in Neowater™ under the following conditions. 1% retinol (0.01 gr in 1 ml) in EtOH and Neowater™ 0.5% retinol (0.005 gr in 1 ml) in EtOH and Neowater™ 0.5% retinol (0.125 gr in 25 ml) in EtOH and Neowater™ 0.25% retinol (0.0625 gr in 25 ml) in EtOH and Neowater™. […] Absorbance spectrum of retinol in EtOH: Retinol solutions were made in absolute EtOH, with different retinol concentrations, in order to create a calibration graph; absorbance spectrum was detected in a spectrophotometer. […] Actual concentration of retinol is also unknown since some oil drops are not dissolved in the water. […] The solutions were filtrated in […] filter.

## F-LH-RH-palm kGFPSK
[1]
  dissolving: dissolved

## CC(=O)O[C@H]1C(=O)[C@@]2(C)[C@H]([C@H](OC(=O)c3ccccc3)[C@]3(O)C[C@H](OC(=O)[C@H](O)[C@@H](NC(=O)c4ccccc4)c4ccccc4)C(C)=C1C3(C)C)[C@]1(OC(C)=O)CO[C@@H]1C[C@@H]2O [Taxol, Paclitaxel]
[2]; 0.5 mM in DMSO
  dissolving: dissolved
[2]; 0.5 mM in Neowater with 17% EtOH
  dissolving: dissolved
[3]
  structural changes on storage (HPLC): no structural changes

## COc1cccc2c1C(=O)c1c(O)c3c(c(O)c1C2=O)C[C@@](O)(C(C)=O)C[C@@H]3O[C@H]1C[C@H](N)[C@H](O)[C@H](C)O1 [Daunorubicine, Cerubidine hydrochloride]
[4]; 2 mg in 1 ml Neowater
  dissolving: dissolves without difficulty
[4]; 2 mg in 1 ml RO
  dissolving: dissolves without difficulty
[5]
  solubility in water: known not to dissolve in water

## Palm-PFPSYK (CMFU)
[1]
  dissolving: dissolved

## CC1=C(/C=C/C(C)=C/C=C/C(C)=C/CO)C(C)(C)CCC1 [Retinol]
[6]; 0.25% retinol in Neowater
  retinol concentration in EtOH with similar absorbance pattern: ~0.03125%
[6]; 0.25% retinol in Neowater, 1.5% EtOH, 0.44 and 0.2 filter
  retinol in the solutions following filtration: less than 0.03125%
[6]; 0.5% retinol in Neowater
  retinol concentration in EtOH with similar absorbance pattern: ~0.125%

## PFPSYKLRPG-NH2
[1]
  dissolving: dissolved

## Daidzein—daunomycin conjugate [CD-Dau]
[4]; Vial #1, 100% Neowater, 5 mg in 1.2 ml
  dissolving: sedimented after a few hours
[4]; Vial #2, 100% acetone, 1.8 mg in 600 μl
  dissolving: 48 hours later the material sedimented partially
[4]; Vial #3, 25% acetone in Neowater
  dissolving: didn't dissolve very well
[4]; Vial #4, 10% PEG+Neowater
  dissolving: dissolved better than the CD-Dau in vial #1
[4]; Vial #5, acetone then Neowater, acetone evaporated
  dissolving: as the acetone evaporated the material partially sediment to the bottom of the vial
[5]
  solubility in water: known not to dissolve in water
